We go through 1 compound from patent US7718393B2, “Method for determining the efficacy of an anthracycline anticancer agent” (Sysmex Corporation, priority 2006, dated 2010).

Holding throughout (format): cell-based, human
The test system of assay [1] is MDA-MB-468. As to the kind of experiment: Cell growth test with or without doxorubicin, MDA-MB-468. Particulars: MDA-MB-468, 1 μM doxorubicin, FIGS. 7 and 9. From the text: (§1) Human breast cancer cells MCF-7, T47-D, SK-B-3, SK-Br-3, MDA-MB-231 and MDA-MB-468 were purchased from American Type Culture Collection (ATCC). 38 cancer cell samples (Nos. 1 to 38) were excised from 38 breast cancer patients with invasive breast cancer classified in stages I to IIIb according to the breast cancer stage classification. The 38 breast cancer patients are those who after removal of cancer tissue, received chemotherapy consisting essentially of administration of anthracycline anticancer agents. Each human breast cancer cell or cancer tissue was proliferated in Eagle's modified minimum essential medium (GIBCO) (hereinafter referred to merely as medium) containing 10% FCS (Commonwealth Laboratories), 1% (v/v) nonessential amino acid (GIBCO), 2 mM L-glutamine (Sigma Chemical), 100 μg/ml streptomycin (GIBCO), 100 U/ml penicillin (GIBCO) and 0.28 μg/ml fungizone (Squib Pharmaceuticals) in a humidified atmosphere of 5% CO2/95% air at 37° C. 3.0×10^3 human breast cancer cells or cancer tissue were inoculated onto a medium in a 96-well plate and cultured for 1 day in a humidified atmosphere of 5% CO2/95% air at 37° C. […] Cell proliferation after 0, 24, 48 and 72 hours was measured by using a cell proliferation assay kit (Nippon Chemi-Con Corporation) or Cell Titer-Glo Luminescent Cell Viability assay (Promega) in accordance with its manufacturer's instructions.

The subject of assay [2] is MDA-MB-231. The assay can be described thus: Cell growth test with or without doxorubicin, MDA-MB-231. Particulars: MDA-MB-231, 1 μM doxorubicin, FIGS. 6 and 11. The source says: (§2) Human breast cancer cells MCF-7, T47-D, SK-B-3, SK-Br-3, MDA-MB-231 and MDA-MB-468 were purchased from American Type Culture Collection (ATCC). 38 cancer cell samples (Nos. 1 to 38) were excised from 38 breast cancer patients with invasive breast cancer classified in stages I to IIIb according to the breast cancer stage classification. The 38 breast cancer patients are those who after removal of cancer tissue, received chemotherapy consisting essentially of administration of anthracycline anticancer agents. Each human breast cancer cell or cancer tissue was proliferated in Eagle's modified minimum essential medium (GIBCO) (hereinafter referred to merely as medium) containing 10% FCS (Commonwealth Laboratories), 1% (v/v) nonessential amino acid (GIBCO), 2 mM L-glutamine (Sigma Chemical), 100 μg/ml streptomycin (GIBCO), 100 U/ml penicillin (GIBCO) and 0.28 μg/ml fungizone (Squib Pharmaceuticals) in a humidified atmosphere of 5% CO2/95% air at 37° C. 3.0×10^3 human breast cancer cells or cancer tissue were inoculated onto a medium in a 96-well plate and cultured for 1 day in a humidified atmosphere of 5% CO2/95% air at 37° C. Thereafter, the medium was exchanged with a medium with or without 1 μM doxorubicin. Cell proliferation after 0, 24, 48 and 72 hours was measured by using a cell proliferation assay kit (Nippon Chemi-Con Corporation) or Cell Titer-Glo Luminescent Cell Viability assay (Promega) in accordance with its manufacturer's instructions.

Assay [3] deals with T47-D. As to the kind of experiment: Cell growth test with or without doxorubicin, T47-D. The conditions noted are these: 1 μM doxorubicin, FIG. 4.
From the text: as §1

The subject of assay [4] is SK-Br-3. The assay can be described thus: Cell growth test with or without doxorubicin, SK-Br-3. The conditions noted are these: SK-Br-3, 1 μM doxorubicin, FIGS. 5 and 10.
From the text: as §1

Assay [5] concerns MDA-MB-453. The assay can be described thus: Cell growth test with or without doxorubicin, MDA-MB-453. The conditions noted are these: MDA-MB-453, 1 μM doxorubicin, FIG. 8.
Assay [6] has as its system MCF-7. The assay can be described thus: Cell growth test with or without doxorubicin, MCF-7. Particulars: MCF-7, 1 μM doxorubicin, FIG. 3.
From the text: as §2

Turning to `COc1cccc2c1C(=O)c1c(O)c3c(c(O)c1C2=O)C[C@@](O)(C(=O)CO)C[C@@H]3O[C@H]1C[C@H](N)[C@H](O)[C@H](C)O1` [doxorubicin], the “Living cells from 0 hour after administration” value in assay [1] (0 to 72 hours) is “gradually decreased with time”; in assay [2] (0 to 72 hours) it was “hardly changed or are increased”; in assay [3] (0 to 72 hours), “gradually decreased with time”; in assay [4] (0 to 72 hours), “gradually decreased with time”; in assay [5] (0 to 72 hours) it was “gradually decreased with time”; in assay [6] (0 to 72 hours), “hardly changed or are increased”. Also, the Induction of apotosis result in assay [1] is given as “induced, but the effect thereon can be seen to be lower”; in assay [2], “very low”; in assay [3], “induced, but the effect thereon can be seen to be lower”; in assay [4] (72 hours) it was “so high that the living cells hardly remain after 72 hours”; in assay [5] (72 hours), “so high that the living cells hardly remain after 72 hours”; in assay [6], “very low”. The “Cell proliferation as compared with the control” value in assay [2] (0 to 72 hours) and in assay [6] (0 to 72 hours) was “suppressed” in each case.
